Source: US6884810B2, “Benzimidazole derivatives” (Zeria Pharmaceutical Co., Ltd., priority 2001, dated 2005)

Key:
H+/K+-ATPase = biological target: T1, H+/K+-ATPase (Sus scrofa, UniProt P19156); assay: Proton pump inhibitory action: activity of inhibiting H+/K+-ATPase (at pH 1); type: biochemical; settings: pig gastric mucosa enzyme sample; test compounds pretreated in hydrochloric acid solution pH 1 (50% DMSO) for 15 minutes; read-out: Proton pump inhibitory action [IC50 (μmol/L)]
T1 construct: The mucous membrane layer was homogenized in Tris-HCl buffer; from tissue; host or cells: pig stomach body, mucous membrane layer, membrane fraction from a sucrose interface
T1 sequence (P19156 2-1034 limits assumed): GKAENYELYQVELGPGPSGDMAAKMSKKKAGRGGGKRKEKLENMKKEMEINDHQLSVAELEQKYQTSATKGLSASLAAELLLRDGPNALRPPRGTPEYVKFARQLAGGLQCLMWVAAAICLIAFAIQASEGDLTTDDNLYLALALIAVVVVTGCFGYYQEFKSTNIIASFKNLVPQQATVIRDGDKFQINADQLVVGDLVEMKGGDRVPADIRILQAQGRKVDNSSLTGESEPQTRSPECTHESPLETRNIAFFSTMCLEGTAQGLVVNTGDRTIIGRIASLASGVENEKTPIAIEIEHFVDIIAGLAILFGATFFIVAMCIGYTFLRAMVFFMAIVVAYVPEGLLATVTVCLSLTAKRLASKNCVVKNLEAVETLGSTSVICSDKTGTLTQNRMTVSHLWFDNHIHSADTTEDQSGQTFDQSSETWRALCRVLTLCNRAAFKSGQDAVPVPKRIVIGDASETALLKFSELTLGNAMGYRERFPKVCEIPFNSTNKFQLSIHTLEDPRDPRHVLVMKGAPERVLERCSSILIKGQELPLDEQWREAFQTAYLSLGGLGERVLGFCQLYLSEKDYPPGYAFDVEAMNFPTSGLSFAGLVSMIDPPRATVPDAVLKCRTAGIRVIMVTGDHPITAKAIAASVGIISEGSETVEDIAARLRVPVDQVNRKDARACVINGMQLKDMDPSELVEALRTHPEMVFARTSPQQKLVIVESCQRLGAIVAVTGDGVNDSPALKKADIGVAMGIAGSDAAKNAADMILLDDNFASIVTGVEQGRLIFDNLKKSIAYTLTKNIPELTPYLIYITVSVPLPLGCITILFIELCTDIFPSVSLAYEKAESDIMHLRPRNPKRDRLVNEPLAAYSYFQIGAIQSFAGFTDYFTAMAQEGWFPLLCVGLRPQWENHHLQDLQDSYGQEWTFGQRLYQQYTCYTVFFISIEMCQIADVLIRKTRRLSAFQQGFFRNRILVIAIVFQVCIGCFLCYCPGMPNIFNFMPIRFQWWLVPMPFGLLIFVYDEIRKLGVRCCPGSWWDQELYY
T1 sequence (P18434 whole entry partner): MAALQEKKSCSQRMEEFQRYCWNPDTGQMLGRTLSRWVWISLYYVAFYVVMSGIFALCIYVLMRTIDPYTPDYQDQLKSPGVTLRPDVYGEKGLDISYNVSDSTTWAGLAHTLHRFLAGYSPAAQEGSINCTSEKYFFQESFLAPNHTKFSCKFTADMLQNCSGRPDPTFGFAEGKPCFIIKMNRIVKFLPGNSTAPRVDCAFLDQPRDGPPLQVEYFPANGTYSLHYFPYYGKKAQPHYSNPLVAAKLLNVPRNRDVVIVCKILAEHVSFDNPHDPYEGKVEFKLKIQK
Source text: (Proton Pump Inhibitory Action)
(1) Preparation of Enzyme Sample (H^+/K^+-ATPase)
The stomach body removed from a pig, which had been stored in a frozen state, was separated into a muscle layer and a mucous membrane layer. The mucous membrane layer was homogenized in Tris-HCl buffer (20 mmol/L, pH 7.4) having a volume 5 times that of the layer and containing sucrose (0.25 mol/L) and EGTA (1 mmol/L) (hereinafter the mixture is referred to as Tris-HCl buffer) in a mixer. The homogenate was subjected to centrifugation (9,000×g, 30 minutes). The supernatant was softly placed on 8 mL Tris-HCl buffer (20 mmol/L, pH 7.4) containing 30% sucrose and 1 mmol/L EGTA. The mixture was subjected to ultracentrifugation at 100,000×g for 60 minutes. The interface fraction obtained through centrifugation was subjected to centrifugation (113,000×g, 60 minutes) twice. Pellet was suspended in Tris-HCl buffer, and the suspension was homogenized at low speed. The resultant homogenate served as an enzyme sample of interest and was stored at −80° C. The protein content of the sample was quantitated through use of a BCA protein assay reagent in accordance with a method described by Smith et al. (Anal. Biochem., 150, 76-85 (1985)). All these steps were performed under cooling with an ice bath.
(2) Activity of inhibiting H^+/K^+-ATPase (at pH 1)
Activity of inhibiting H^+/K^+-ATPase was measured in accordance with a method described in Biochem. Biophys. Res. Commun., 40, 880-886 (1970). Specifically, ATP was employed as a substrate, and inorganic phosphate, which is a resultant degradation product, was quantitated. In consideration of the solubility of test compounds, the test compounds were preliminarily treated with a hydrochloric acid solution (containing 50% DMSO, 1×10^−1 mol/L, pH 1). Each of the test compounds having different concentrations was added to the hydrochloric acid solution to thereby yield a 1,000—fold dilution, and thereafter, the diluted compound was allowed to stand for 15 minutes at room temperature. After these preliminary remedies, a 10 μL solution that had undergone the above preliminary remedies were added to 840 μL Tris-acetate buffer (40 mmol/L, pH 7.5, containing 2 mmol/L MgCl2, may be referred to as TE buffer) containing or not containing 20 mmol/L KCl. Subsequently, a 100 μL enzyme solution (5 μg protein) diluted with the TE buffer was added. Incubation was performed for 30 minutes at 37° C. Thereafter, a 50 μL ATP solution (40 mmol/L) which was dissolved in TE buffer not containing KCl was added to initiate enzyme reaction (total volume: 1 mL, ATP final concentration: 2 mmol/L). Incubation was performed for 30 minutes at 37° C. Subsequently, ice-cold 12% trichloroacetic acid (2 mL) was added, to thereby stop the enzyme reaction. A molybdenum reagent (1 mL, 3.75% ammonium molybdate/1.5 mol/L sulfuric acid) and butyl acetate (5 mL) were added, followed by mixing under vigorous shaking for 5 minutes. The absorption of the butyl acetate layer was measured at 310 nm. A standard curve was determined on the basis of absorption obtained through the similar procedure by use of KH2PO4 at different concentrations dissolved in 8% TCA solution, and inorganic phosphate content was calculated. Samples to be measured were prepared in duplicate. The measurements were averaged, and residual activity was obtained from the difference between the inorganic phosphate content as determined in a sample containing KCl and that as determined in a sample not containing KCl. Percentage inhibition activity was calculated with respect to the activity obtained from a control sample (DMSO), which was considered 100%. As the inhibitory potency of each test compound, IC50 values were computed and shown. All the test compounds were dissolved in dimethyl sulfoxide immediately before use.

[1] = tested on: gastric acid secreted under stimulation with histamine; assay: Gastric acid secretion inhibition action, histamine-stimulated, acute Fistula method; type: in vivo, Sprague-Dawley (SD) rats; settings: SD rats, administered in the duodenum, histamine 8 mg/kg/h, total acid discharge at 3, 4 and 5 hours, Probit method
Method: (Gastric Acid Secretion Inhibition Action)
(1) Test Animals Employed were Sprague-Dawley (SD) Rats (7 Weeks Old, Male) Purchased from Charles River Japan, Inc. Before the Test, the Rats Were Fed for 5 Days or More.
Each test drug was suspended in, or dissolved in, 0.5% sodium carboxymethylcellulose solution, whereby a suspension or solution was prepared so as to attain 2.5 mL/kg.
(2) Measurement of Gastric Acid Secretion
The amount of gastric acid secreted under stimulation with histamine was measured on the rats fasted for 18 hours by use of the acute Fistula method as described by Hiramatsu et al. (Dig. Dis. Sci.,39, 689-697(1994)). Briefly, each rat was etherized lightly, and then a winged tubular needle filled with 3.8% citric acid solution was indwelled in the tail vein of the rat. The abdomen of the rat was opened, and the pyloric part of the stomach was ligated. Subsequently, a small hole was made in the duodenum, and the abdomen of the rat was closed with a feeding tube filled with saline indwelled. The inside of the stomach was washed with saline, a polyethylene-made Fistula tube (inner diameter: 4 mm) was set in the anterior stomach, and the cut portion of the anterior stomach was ligated and secured. The stomach and the duodenum were returned to the abdominal cavity, with the Fistula tube and the feeding tube exposed outside. The rat was placed in a Ballman cage II. Histamine was continuously administered through the winged injection needle which had been indwelled in the tail vein in advance (8 mg/kg/h, 1.38 mL/h). 15 Minutes thereafter, gastric juice of the rat was collected. Subsequently, collection of gastric juice was performed every one hour. Each time, the amount of the collected gastric juice was recorded, followed by titration with NaOH (0.1 mol/L) up to the end point pH 7.0. From the volume consumed for titration, acidity was calculated. The acid discharge amount was calculated as a product of the amount of the gastric juice and the acidity. Before starting the test, the rats were grouped so that the intra-group total amount of the gastric juice samples initially collected was the same between groups. Thereafter, each test drug was administered (2.5 mL/kg) in the duodenum through a feeding tube which had been attached to the duodenum in advance. To each rat of a control group, 0.5% Na-CMC solution was administered.
(3) Analysis of the Results
The data as obtained above are shown by way of mean±standard error. Total amount of acid discharge was obtained through summation of the amounts of acid discharge at three points in time; i.e., 3, 4 and 5 hours after initial collection of gastric juice. Percent inhibition of each group was computed from the total acid discharge amount of the control group and that of each group. On the basis of the percent inhibition calculated for each group, 50% effective dose (ED50) was computed by use of the Probit method.

CYP2C19 = biological target: T2, CYP2C19 (Homo sapiens, UniProt P33261); assay: Human CYP2C19 activity inhibition test (S-(+)-mephenytoin to 4'-hydroxymephenytoin); type: in vitro ADME; settings: test compound 10 μM, human CYP2C19 yeast expression system microsome, 4'-hydroxymephenytoin generated vs control; for CYP2C19 residual activity (%): 10 µM
T2 construct: purchased Sumitomo Chemical Co., Ltd; host or cells: yeast (microsomes)
T2 sequence (P33261 whole entry): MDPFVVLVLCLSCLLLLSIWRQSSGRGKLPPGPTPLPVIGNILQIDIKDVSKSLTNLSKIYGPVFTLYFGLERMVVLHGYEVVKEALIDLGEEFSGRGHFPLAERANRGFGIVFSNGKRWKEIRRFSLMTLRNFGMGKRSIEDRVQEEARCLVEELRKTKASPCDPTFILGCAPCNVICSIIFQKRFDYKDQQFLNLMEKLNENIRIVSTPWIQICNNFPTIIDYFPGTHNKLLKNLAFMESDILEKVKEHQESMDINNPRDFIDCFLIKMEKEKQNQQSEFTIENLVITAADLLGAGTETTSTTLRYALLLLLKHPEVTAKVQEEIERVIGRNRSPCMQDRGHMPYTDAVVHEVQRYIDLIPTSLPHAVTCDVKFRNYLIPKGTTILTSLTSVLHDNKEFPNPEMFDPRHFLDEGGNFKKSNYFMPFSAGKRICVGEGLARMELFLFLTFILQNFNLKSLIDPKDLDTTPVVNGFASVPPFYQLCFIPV
Method: (Human CYP2C19 Activity Inhibition Test)
CYP2C19 specifically participates in the metabolism reaction from S-(+)-mephenytoin to 4′-hydroxymephenytoin. Therefore, by use of an expression system CYP2C19, the production amount (concentration) of 4′-hydroxymephenytoin, serving as an index for CYP2C19 activity, was determined, whereby the inhibitory action of respective test substances was investigated.
(a) Metabolizing Activity Test
A solution of S-(+)-mephenytoin in methanol (125 μmol/L, 50 μL) and a solution of a test substance in methanol (25 μmol/L, 0, 10, 100, or 200 μL) were placed in a 10-mL glass test tube. The solvent was removed under a nitrogen gas at 40° C. A 75 μL mixture of 0.5M phosphate buffer (pH 7.4)-0.5 mM EDTA (20:10), 140 μL purified water, and 10 μL human CYP2C19 yeast expression system microsome (purchased from Sumitomo Chemical Co., Ltd.) were added.
Incubation was performed for 10 minutes at 37° C. Subsequently, aqueous 12% perchloric acid solution (50 μL) was added, to thereby stop the reaction.
After the reaction was stopped, an internal standard substance (I.S.) methyl p-hydroxybenzoate (100 μg/ mL, 50 μL), and diethyl ether (2 mL) were added. The mixture was shaken for 10 minutes, followed by centrifugation at 3,000 rpm for 10 minutes. The organic layer was separated, and the solvent was removed under a nitrogen gas at 40° C. The residue was dissolved in a 200 μL mobile phase, and the mixture was subjected to analysis by high performance liquid chromatography (HPLC).
In order to generate a calibration curve, the general procedure of the above process was repeated by use of 4′-hydroxymephenytoin solution instead of the S-(+)-mephenytoin solution. Quantitation was performed on the basis of the peak area ratio of 4′-hydroxymephenytoin to I.S. The amount of 4′-hydroxymephenytoin generated in the control sample was compared with that generated in the present of a test compound, and the results of comparison were used as an activity index.
HPLC was performed under the conditions described below (HPLC conditions A or HPLC conditions B).

`[O-][S+](Cc1cc(OCCCC(F)(F)F)ccn1)c1nc2ccccc2[nH]1` (single isomer, unassigned; (+)) [Example 11, (+)-2-[4-(4,4,4-trifluorobutoxy)pyridin-2-yl-methanesulfinyl]-1H-benzimidazole] was tested, and the IC50 (H+/K+-ATPase) was 3.77 µmol/L and the “Gastric-acid secretion inhibition action [ED50 (mg/kg)]” value [1] was 0.50 mg/kg.
Compound `[O-][S+](Cc1cc(OCCOCC(F)(F)F)ccn1)c1nc2ccccc2[nH]1` (stereo not shown) [Example 12, 2-{4-[2-(2,2,2-trifluoroethoxy)ethoxy]pyridin-2-yl-methanesulfinyl}-1H-benzimidazole] has an IC50 (H+/K+-ATPase) of 7.86 µmol/L and an activity at 10 min, 10 µM (CYP2C19; human, pH 7.4, probe S-(+)-mephenytoin (to 4'-hydroxymephenytoin), read-out: CYP2C19 residual activity (%)) of 88.8%.
In the case of `COc1c(OCCCC(F)(F)F)ccnc1C[S+]([O-])c1nc2ccccc2[nH]1` (single isomer, unassigned; (+)) [Example 5(1), (+)-2-[3-methoxy-4-(4,4,4-trifluorobutoxy)pyridin-2-yl-methanesulfinyl]-1H-benzimidazole], the IC50 (H+/K+-ATPase) is reported as 3.32 µmol/L, the “CYP2C19 residual activity (%)” value (CYP2C19) is reported as 78.6% and the ED50 ([1]; Rattus norvegicus) is reported as 0.9 mg/kg.
In the case of `COc1c(OCCOCC(F)(F)F)ccnc1C[S+]([O-])c1nc2ccccc2[nH]1` (single isomer, unassigned; (-)) [Example 4, (−)-2-{3-methoxy-4-[2-(2,2,2-trifluoroethoxy)ethoxy]pyridin-2-yl-methylsulfinyl}-1H-benzimidazole], the IC50 (H+/K+-ATPase) is reported as 3.46 µmol/L, the “CYP2C19 residual activity (%)” value (CYP2C19) is reported as 93.9% and the “Gastric-acid secretion inhibition action [ED50 (mg/kg)]” value [1] is reported as 2.6 mg/kg.
For `[O-][S+](Cc1cc(OCCOCC(F)(F)F)ccn1)c1nc2ccccc2[nH]1` (single isomer, unassigned; (+)) [Example 14, (+)-2-{4-[2-(2,2,2-trifluoroethoxy)ethoxy]pyridin-2-yl-methanesulfinyl}-1H-benzimidazole], the IC50 (H+/K+-ATPase) was 6.67 µmol/L, the “CYP2C19 residual activity (%)” value (CYP2C19) was 81.4% and the “Gastric-acid secretion inhibition action [ED50 (mg/kg)]” value [1] was 0.42 mg/kg.
